Test results from ChEMBL document CHEMBL5678809, “Preclinical characterization of GLPG0634, a selective inhibitor of JAK1, for the treatment of inflammatory diseases” (J Immunol, 2013).
Active and inactive are the calls of the source. The calls are words filed in the database; no cut-off is given here.

Assays:
[1] = biological target: Tyrosine-protein kinase ABL1 (Homo sapiens, UniProt P00519); assay: Inhibition of ABL (unknown origin)
Aurora kinase B = Aurora kinase B (Homo sapiens, UniProt Q96GD4); assay: Inhibition of AURORA-B (unknown origin)
[2] = biological target: Tyrosine-protein kinase BTK (Homo sapiens, UniProt Q06187); assay: Inhibition of BTK (unknown origin)
[3] = biological target: RAF proto-oncogene serine/threonine-protein kinase (Homo sapiens) (UniProt P04049); assay: Inhibition of c-RAF (unknown origin) at 1 uM relative to control
[4] = biological target: Casein kinase I isoform gamma-2 (Homo sapiens, UniProt P78368); assay: Inhibition of CSNK1G2 (unknown origin)
[5] = biological target: Serine/threonine-protein kinase DCLK2 (Homo sapiens) (UniProt Q8N568); assay: Inhibition of DCAMKL2 (unknown origin) at 1 uM relative to control
[6] = biological target: Eukaryotic elongation factor 2 kinase (Homo sapiens) (UniProt O00418); assay: Inhibition of eEF2K (unknown origin) at 1 uM relative to control
[7] = biological target: G protein-coupled receptor kinase 5 (Homo sapiens) (UniProt P34947); assay: Inhibition of GRK5 (unknown origin) at 1 uM relative to control
[8] = biological target: Interleukin-1 receptor-associated kinase 4 (Homo sapiens, UniProt Q9NWZ3); assay: Inhibition of IRAK4 (unknown origin)
[9] = biological target: Tyrosine-protein kinase ITK/TSK (Homo sapiens) (UniProt Q08881); assay: Inhibition of Itk (unknown origin) at 1 uM relative to control
[10] = biological target: Tyrosine-protein kinase Lck (Homo sapiens, UniProt P06239); assay: Inhibition of LCK (unknown origin)
[11] = biological target: Serine/threonine-protein kinase 10 (Homo sapiens) (UniProt O94804); assay: Inhibition of LOK (unknown origin) at 1 uM relative to control
[12] = biological target: Mitogen-activated protein kinase kinase kinase 3 (Homo sapiens, UniProt Q99759); assay: Inhibition of MAP3K3 (unknown origin)
[13] = biological target: Mitogen-activated protein kinase kinase kinase kinase 4 (Homo sapiens, UniProt O95819); assay: Inhibition of MAP4K4 (unknown origin)
[14] = biological target: Mitogen-activated protein kinase 14 (Homo sapiens, UniProt Q16539); assay: Inhibition of MAPK14 (unknown origin)
[15] = biological target: MAP kinase-activated protein kinase 2 (Homo sapiens) (UniProt P49137); assay: Inhibition of MAPK2 (unknown origin) at 1 uM relative to control
Misshapen-like kinase 1 = Misshapen-like kinase 1 (Homo sapiens, UniProt Q8N4C8); assay: Inhibition of MINK (unknown origin)
Homo sapiens [16] = organism: Homo sapiens; assay: Inhibition of MRCK (unknown origin) at 1 uM relative to control
[17] = biological target: Ribosomal protein S6 kinase alpha-4 (Homo sapiens) (UniProt O75676); assay: Inhibition of MSK2 (unknown origin) at 1 uM relative to control
[18] = biological target: Serine/threonine-protein kinase MARK2 (Homo sapiens) (UniProt Q7KZI7); assay: Inhibition of PAR-1B (unknown origin) at 1 uM relative to control
Homo sapiens [19] = organism: Homo sapiens; assay: Inhibition of PDGFR (unknown origin) at 1 uM relative to control
[20] = biological target: Platelet-derived growth factor receptor alpha (Homo sapiens) (UniProt P16234); assay: Inhibition of PDGFR2 (unknown origin) at 1 uM relative to control
Homo sapiens [21] = organism: Homo sapiens; assay: Inhibition of PhK2 (unknown origin) at 1 uM relative to control
[22] = biological target: Protein kinase C beta type (Homo sapiens) (UniProt P05771); assay: Inhibition of PKCb (unknown origin) at 1 uM relative to control
[23] = biological target: Tyrosine-protein kinase FRK (Homo sapiens) (UniProt P42685); assay: Inhibition of PTK5 (unknown origin) at 1 uM relative to control
[24] = biological target: Proto-oncogene tyrosine-protein kinase receptor Ret (Homo sapiens) (UniProt P07949); assay: Inhibition of Ret (unknown origin) at 1 uM relative to control
[25] = biological target: Rho-associated protein kinase 1 (Homo sapiens, UniProt Q13464); assay: Inhibition of ROCK1 (unknown origin)
[26] = biological target: Serine/threonine-protein kinase SIK1 (Homo sapiens) (UniProt P57059); assay: Inhibition of SIK (unknown origin) at 1 uM relative to control
[27] = biological target: Serine/threonine-protein kinase PLK2 (Homo sapiens) (UniProt Q9NYY3); assay: Inhibition of Snk (unknown origin) at 1 uM relative to control
[28] = biological target: Tyrosine-protein kinase TXK (Homo sapiens) (UniProt P42681); assay: Inhibition of Txk (unknown origin) at 1 uM relative to control
[29] = biological target: Serine/threonine-protein kinase ULK3 (Homo sapiens) (UniProt Q6PHR2); assay: Inhibition of ULK3 (unknown origin) at 1 uM relative to control
[30] = biological target: Death-associated protein kinase 3 (Homo sapiens) (UniProt O43293); assay: Inhibition of ZIPK (unknown origin) at 1 uM relative to control
[31] = biological target: MAP kinase-interacting serine/threonine-protein kinase 2 (Homo sapiens, UniProt Q9HBH9); assay: Inhibition of MNK2 (unknown origin) at 1 uM relative to control
[32] = AUC (0 to 24 hrs) in CD-1 mouse at 5 mg/kg, po measured upto 24 hrs by LC-MS analysis; assay type: ADME, organism-based; details: in vivo
[33] = Clearance in Sprague-Dawley rat at 1 mg/kg, iv measured upto 8 hrs by LC-MS analysis; assay type: ADME, organism-based; details: in vivo
Rattus norvegicus = assay: Antiarthritic activity against collagen-induced arthritis Dark Agouti rat model assessed as reduction in clinical score at 1 to 10 mg/kg, po measured after day 5; assay type: functional, organism-based; details: dose 1-10 mg/kg, time 5.0 day
Mus musculus [34] = assay: Antiarthritic activity against collagen-induced arthritis DBA/1J mouse model assessed as reduction in IL-1beta expression at 50 mg/kg, po measured for 4 hrs; assay type: functional, organism-based
Mus musculus [35] = assay: Antiarthritic activity against collagen-induced arthritis DBA/1J mouse model assessed as MIP-1beta level in serum at 50 mg/kg, po measured for 4 hrs by luminex analysis (reference value: 203.4= +/- 20.8 ng/ml); assay type: functional
Mus musculus [36] = assay: Antiarthritic activity against collagen-induced arthritis DBA/1J mouse model assessed as reduction in IL-6 level in serum at 50 mg/kg, po measured for 4 hrs by luminex analysis; assay type: functional, organism-based
Mus musculus [37] = assay: Antiarthritic activity against collagen-induced arthritis DBA/1J mouse model assessed as reduction in IP-10 level in serum at 50 mg/kg, po measured for 4 hrs by luminex analysis; assay type: functional, organism-based
Mus musculus [38] = assay: Antiarthritic activity against collagen-induced arthritis DBA/1J mouse model assessed as reduction in MCP-1 level in serum at 50 mg/kg, po measured for 4 hrs by luminex analysis; assay type: functional, organism-based
Mus musculus [39] = assay: Antiarthritic activity against collagen-induced arthritis DBA/1J mouse model assessed as reduction in MX1 level in whole blood at 50 mg/kg, po measured for 2 weeks by luminex analysis; assay type: functional, organism-based

Tyrosine-protein kinase FRK (Homo sapiens), sequence (P42685 whole entry): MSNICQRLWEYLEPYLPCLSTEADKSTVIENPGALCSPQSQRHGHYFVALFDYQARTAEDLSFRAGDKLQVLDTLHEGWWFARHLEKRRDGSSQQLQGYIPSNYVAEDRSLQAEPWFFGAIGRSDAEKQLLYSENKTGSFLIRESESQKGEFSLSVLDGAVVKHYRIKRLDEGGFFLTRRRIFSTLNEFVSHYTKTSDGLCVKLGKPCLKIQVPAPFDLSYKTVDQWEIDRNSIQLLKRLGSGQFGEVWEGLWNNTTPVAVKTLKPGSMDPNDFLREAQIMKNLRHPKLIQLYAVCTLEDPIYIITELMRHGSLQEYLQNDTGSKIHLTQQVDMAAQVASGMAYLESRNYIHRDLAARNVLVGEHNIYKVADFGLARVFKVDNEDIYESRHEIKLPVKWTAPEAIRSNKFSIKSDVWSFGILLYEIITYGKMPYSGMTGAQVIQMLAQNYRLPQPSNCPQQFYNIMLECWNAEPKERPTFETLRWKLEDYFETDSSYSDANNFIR
Eukaryotic elongation factor 2 kinase (Homo sapiens), sequence (O00418 whole entry): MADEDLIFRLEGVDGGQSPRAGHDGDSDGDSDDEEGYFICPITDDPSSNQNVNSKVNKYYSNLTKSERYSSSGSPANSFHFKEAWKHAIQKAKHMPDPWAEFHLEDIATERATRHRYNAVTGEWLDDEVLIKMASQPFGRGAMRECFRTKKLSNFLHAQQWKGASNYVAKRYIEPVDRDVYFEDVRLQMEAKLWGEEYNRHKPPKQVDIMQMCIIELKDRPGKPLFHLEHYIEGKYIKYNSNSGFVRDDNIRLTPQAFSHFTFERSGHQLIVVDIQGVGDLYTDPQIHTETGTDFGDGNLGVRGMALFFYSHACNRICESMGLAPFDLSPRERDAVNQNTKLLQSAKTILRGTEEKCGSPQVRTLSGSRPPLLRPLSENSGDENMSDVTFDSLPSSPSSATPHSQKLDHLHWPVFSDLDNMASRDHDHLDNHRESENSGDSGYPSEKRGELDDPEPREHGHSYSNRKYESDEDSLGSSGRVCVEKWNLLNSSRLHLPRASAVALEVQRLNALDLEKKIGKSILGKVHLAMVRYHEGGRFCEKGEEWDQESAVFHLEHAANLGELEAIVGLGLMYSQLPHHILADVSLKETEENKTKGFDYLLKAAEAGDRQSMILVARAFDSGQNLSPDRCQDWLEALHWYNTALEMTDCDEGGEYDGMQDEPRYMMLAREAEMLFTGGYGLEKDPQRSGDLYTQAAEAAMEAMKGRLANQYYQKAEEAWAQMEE
Tyrosine-protein kinase TXK (Homo sapiens), sequence (P42681 whole entry): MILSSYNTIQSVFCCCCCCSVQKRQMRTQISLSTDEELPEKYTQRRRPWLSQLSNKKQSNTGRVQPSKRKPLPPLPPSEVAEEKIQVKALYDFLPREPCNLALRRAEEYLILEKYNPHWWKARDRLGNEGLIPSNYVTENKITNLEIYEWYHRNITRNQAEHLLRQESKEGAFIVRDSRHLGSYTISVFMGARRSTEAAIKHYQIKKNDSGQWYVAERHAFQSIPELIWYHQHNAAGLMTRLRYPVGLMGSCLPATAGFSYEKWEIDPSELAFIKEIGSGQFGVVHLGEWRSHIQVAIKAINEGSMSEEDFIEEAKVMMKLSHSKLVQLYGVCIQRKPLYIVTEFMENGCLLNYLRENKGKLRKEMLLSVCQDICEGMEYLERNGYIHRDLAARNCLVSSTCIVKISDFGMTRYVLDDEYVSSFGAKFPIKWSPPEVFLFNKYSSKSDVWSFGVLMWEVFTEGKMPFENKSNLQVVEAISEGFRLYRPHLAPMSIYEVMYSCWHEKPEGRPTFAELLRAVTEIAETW
Tyrosine-protein kinase Lck, sequence (P06239 whole entry): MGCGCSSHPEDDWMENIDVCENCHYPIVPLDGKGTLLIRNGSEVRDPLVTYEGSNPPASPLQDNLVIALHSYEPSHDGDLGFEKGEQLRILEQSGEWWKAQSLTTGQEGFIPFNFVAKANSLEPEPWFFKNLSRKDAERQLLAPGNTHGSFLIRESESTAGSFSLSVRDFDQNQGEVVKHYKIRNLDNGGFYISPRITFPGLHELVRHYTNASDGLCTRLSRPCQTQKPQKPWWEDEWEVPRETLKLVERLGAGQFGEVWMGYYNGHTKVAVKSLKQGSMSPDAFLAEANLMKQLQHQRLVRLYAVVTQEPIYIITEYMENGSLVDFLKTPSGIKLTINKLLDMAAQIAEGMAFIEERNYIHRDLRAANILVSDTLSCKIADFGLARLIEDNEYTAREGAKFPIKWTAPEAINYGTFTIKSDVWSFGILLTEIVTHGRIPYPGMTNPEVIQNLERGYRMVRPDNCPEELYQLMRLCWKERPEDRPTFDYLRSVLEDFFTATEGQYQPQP
Misshapen-like kinase 1, sequence (Q8N4C8 whole entry): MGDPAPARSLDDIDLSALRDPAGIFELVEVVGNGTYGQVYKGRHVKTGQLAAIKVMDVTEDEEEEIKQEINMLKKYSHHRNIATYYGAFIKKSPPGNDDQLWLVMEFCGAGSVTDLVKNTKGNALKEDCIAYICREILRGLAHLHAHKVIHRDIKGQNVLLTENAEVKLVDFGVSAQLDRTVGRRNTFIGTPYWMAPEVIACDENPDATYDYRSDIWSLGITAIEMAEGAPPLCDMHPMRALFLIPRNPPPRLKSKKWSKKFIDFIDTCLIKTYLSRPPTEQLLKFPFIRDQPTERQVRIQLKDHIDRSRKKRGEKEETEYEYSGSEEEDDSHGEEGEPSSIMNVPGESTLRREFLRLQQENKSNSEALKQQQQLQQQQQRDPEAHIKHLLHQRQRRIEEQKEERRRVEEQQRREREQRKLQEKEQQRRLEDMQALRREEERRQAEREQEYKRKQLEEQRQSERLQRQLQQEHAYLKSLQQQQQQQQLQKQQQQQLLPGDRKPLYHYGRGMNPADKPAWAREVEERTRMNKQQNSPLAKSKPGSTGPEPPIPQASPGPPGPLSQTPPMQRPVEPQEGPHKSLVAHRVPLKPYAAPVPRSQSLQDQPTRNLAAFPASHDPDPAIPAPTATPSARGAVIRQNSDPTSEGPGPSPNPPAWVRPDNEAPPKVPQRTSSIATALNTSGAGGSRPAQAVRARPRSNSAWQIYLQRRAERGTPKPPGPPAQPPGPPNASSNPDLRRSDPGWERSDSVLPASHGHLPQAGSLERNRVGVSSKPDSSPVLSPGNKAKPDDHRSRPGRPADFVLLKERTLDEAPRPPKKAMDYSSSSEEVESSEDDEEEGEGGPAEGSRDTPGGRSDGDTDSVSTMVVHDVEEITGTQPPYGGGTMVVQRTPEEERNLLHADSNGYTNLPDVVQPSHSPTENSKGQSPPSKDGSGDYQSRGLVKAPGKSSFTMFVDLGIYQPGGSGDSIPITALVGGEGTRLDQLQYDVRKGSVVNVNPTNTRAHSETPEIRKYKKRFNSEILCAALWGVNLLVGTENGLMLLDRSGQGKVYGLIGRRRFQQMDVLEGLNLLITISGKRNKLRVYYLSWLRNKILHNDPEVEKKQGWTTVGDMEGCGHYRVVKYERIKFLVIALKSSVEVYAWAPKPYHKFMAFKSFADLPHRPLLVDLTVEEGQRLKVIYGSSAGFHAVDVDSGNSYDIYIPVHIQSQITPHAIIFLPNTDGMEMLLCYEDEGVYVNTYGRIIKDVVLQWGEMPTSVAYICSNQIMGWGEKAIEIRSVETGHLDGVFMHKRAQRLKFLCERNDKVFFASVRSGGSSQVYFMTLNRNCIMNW
Serine/threonine-protein kinase PLK2 (Homo sapiens), sequence (Q9NYY3 whole entry, looked up): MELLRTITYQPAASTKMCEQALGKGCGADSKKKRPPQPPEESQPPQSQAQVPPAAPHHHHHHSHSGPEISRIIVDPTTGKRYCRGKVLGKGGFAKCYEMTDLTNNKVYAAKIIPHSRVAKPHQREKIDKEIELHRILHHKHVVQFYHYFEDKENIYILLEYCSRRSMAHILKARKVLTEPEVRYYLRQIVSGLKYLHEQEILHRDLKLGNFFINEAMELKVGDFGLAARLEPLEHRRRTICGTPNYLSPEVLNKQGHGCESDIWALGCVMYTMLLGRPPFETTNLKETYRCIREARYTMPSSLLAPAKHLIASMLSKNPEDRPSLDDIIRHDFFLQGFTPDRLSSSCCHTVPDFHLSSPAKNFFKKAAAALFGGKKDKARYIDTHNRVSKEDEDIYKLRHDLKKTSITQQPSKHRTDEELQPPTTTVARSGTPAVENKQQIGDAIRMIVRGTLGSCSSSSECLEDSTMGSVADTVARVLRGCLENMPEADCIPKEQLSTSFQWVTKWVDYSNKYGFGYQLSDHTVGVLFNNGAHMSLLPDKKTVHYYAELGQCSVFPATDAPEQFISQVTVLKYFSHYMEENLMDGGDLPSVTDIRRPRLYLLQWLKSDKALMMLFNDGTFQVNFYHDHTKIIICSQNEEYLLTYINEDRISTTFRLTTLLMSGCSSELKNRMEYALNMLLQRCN
MAP kinase-activated protein kinase 2 (Homo sapiens), sequence (P49137 whole entry, looked up): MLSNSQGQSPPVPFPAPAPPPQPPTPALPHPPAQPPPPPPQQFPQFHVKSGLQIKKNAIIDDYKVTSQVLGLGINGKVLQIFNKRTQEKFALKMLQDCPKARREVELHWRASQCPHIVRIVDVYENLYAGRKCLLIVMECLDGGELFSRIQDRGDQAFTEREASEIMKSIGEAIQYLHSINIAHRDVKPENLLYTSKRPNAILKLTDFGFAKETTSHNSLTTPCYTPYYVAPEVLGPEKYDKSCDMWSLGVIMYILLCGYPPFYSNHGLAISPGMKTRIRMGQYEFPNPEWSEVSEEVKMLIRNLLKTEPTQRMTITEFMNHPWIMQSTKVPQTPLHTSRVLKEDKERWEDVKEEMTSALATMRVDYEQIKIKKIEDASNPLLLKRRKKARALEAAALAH
Aurora kinase B, sequence (Q96GD4 whole entry): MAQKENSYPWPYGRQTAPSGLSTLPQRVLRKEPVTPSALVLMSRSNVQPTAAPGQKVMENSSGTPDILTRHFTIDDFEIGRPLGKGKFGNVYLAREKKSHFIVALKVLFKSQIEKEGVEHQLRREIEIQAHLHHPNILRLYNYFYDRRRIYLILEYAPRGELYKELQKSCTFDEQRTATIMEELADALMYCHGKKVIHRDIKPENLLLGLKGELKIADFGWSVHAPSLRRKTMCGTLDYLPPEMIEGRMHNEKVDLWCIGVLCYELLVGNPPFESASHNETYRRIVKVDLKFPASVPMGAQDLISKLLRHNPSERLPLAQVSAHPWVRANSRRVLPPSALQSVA

IC50 [1]: 2.3 µM | IC50 (Aurora kinase B): > 10 µM | IC50 [2]: > 10 µM | inhibition [3]: -4% | IC50 [4]: > 10 µM | inhibition [5]: 12% | inhibition [6]: -4% | inhibition [7]: -10% | IC50 [8]: > 10 µM | inhibition [9]: -4% | IC50 [10]: > 10 µM | inhibition [11]: -3% | IC50 [12]: > 10 µM | IC50 [13]: > 10 µM | IC50 [14]: > 10 µM | inhibition [15]: 0% | IC50 (Misshapen-like kinase 1): > 10 µM | inhibition (Homo sapiens [16]): -3% | inhibition [17]: 7% | inhibition [18]: -7% | inhibition (Homo sapiens [19]): 2% | inhibition [20]: -10% | inhibition (Homo sapiens [21]): -7% | inhibition [22]: -2% | inhibition [23]: -6% | inhibition [24]: 9% | IC50 [25]: > 10 µM | inhibition [26]: 1% | inhibition [27]: 0% | inhibition [28]: 14% | inhibition [29]: 4% | inhibition [31]: -10% | AUC [32]: 1890 ng·h/mL | clearance [33]: 23.3 mL/min/kg
Structure (SMILES): O=C(Nc1nc2cccc(-c3ccc(CN4CCS(=O)(=O)CC4)cc3)n2n1)C1CC1 [FILGOTINIB]
inhibition [30]: 3% | Activity (Rattus norvegicus): Active | Activity (Mus musculus [34]): Active | Activity (Mus musculus [35]): 143 ng/mL | Activity (Mus musculus [36]): Active | Activity (Mus musculus [37]): Active | Activity (Mus musculus [38]): Active | Activity (Mus musculus [39]): inactive
